Results from EP1891957A1 (Sloan-Kettering Institute for Cancer Research, priority 1996, dated 1998).
Values joined by “and” are separate entries in the source; they are usually repeats but may differ in a detail not shown here. Identical values can stand only once. Like-named read-outs stand apart in the source and are kept apart here.

Key:
[1] = test system: human LX-1 lung cancer; conditions: LX-1 xenograft, schedule and doses as Example 2; for Average Tumor Diameter (mm): nude mice
[2] = test system: human MX-1 mammary carcinoma; assay: Xenografts of human MX-1 mammary carcinoma in nude mice; conditions: MX-1 xenograft; for Average Tumor Diameter (mm): nude mice, once a day for five days starting three days after implantation, 10-propargyl-10dAM 3 mg/kg, MTX 2 mg/kg, EDX 1.5 mg/kg, measured 14 days after start of treatment; for Complete Regressions: mice with no measurable tumor 14 days after start of treatment / mice treated; for Complete Regressions / Cures: same doses; for Cures: tumor free mice three weeks after cessation of therapy / mice treated
[3] = test system: human A549 lung cancer; conditions: A549 xenograft, schedule and doses as Example 2; for Average Tumor Diameter (mm): nude mice
Text: Example 2 was repeated using xenografts of human A549 lung cancer in nude mice.

[4] = test system: CD rats
[5] = in vivo; conditions: rat, iv
[6] = dogs, 3 mg/kg i.v.
[7] = test system: B6D2F1 mice
[8] = in vivo; conditions: dog, iv
[9] = test system: MDA468; assay: Cytotoxicity, 3 hour pulse-exposure, MDA468; conditions: Homo sapiens
[10] = test system: SKLC-16; assay: Cytotoxicity, 3 hour pulse-exposure, SKLC-16; conditions: Homo sapiens
[11] = test system: ZR-75-1; assay: Cytotoxicity, 3 hour pulse-exposure, ZR-75-1; conditions: Homo sapiens, ZR-75-1, 3 h
[12] = test system: SK-BRIII; assay: Cytotoxicity, 3 hour pulse-exposure, SK-BRIII; conditions: Homo sapiens

Row | Structure (SMILES) | Average Tumor Diameter (mm) [1] [mm] | Complete Regressions [1] | Cures [1] | Average Tumor Diameter (mm) [2] [mm] | Complete Regressions [2] | Cures [2] | Average Tumor Diameter (mm) [3] [mm] | Complete Regressions [3] | Cures [3] | also measured
1 | CN(Cc1cnc2nc(N)nc(N)c2n1)c1ccc(C(=O)N[C@@H](CCC(=O)O)C(=O)O)cc1 [MTX, methotrexate] | 9.2 ± 2 | 0/10 | 0/10 | 7.6 ± 0.8 | no regressions and 0/10 | 0/10 | 8.3 ± 2 | 0/5 | 0/5 | 
2 | C#CCC(Cc1cnc2nc(N)nc(N)c2n1)c1ccc(C(=O)N[C@@H](CCC(=O)O)C(=O)O)cc1 (stereo partly drawn) [10-propargyl-10dAM, 10-Propargyl-10-deazaaminopterin] |  |  |  |  |  |  |  |  |  | animals died ([4]; 100 mg/kg i.v. QWX3, by day 23): one out of the five; rats died ([4]; 150 mg/kg i.v. QWX3, days 18, 20 and 23): three out of the five; rats died ([4]; 200 mg/kg i.v. QWX3, days 12, 14, 15, 20 and 20): all five; rats died ([4]; 300 mg/kg i.v. QWX3, days 11, 11, 12, 12 and 14): all five; LD10 ([4]; i.v. QWX3, conservative estimate, median-effect plot): about 75 mg/kg; LD50 [5]: ~110 mg/kg; metabolite (retention time 6.3 min) as part of the total urinary 10-propargyl-10dAM ([6]; urine at 1 hr): < 0.31%; metabolite (retention time 6.3 min) as part of the total urinary 10-propargyl-10dAM ([6]; urine at 4 hr): < 3.5%; mice died ([7]; 400 mg/kg i.p. QWX3, days 19, 20, 23 and 24): four out of five; mice died ([7]; 600 mg/kg i.p. QWX3, days 9, 18, 19 and 21): four out of five; LD50 [8]: ~8 mg/kg
3 | CCC(Cc1cnc2nc(N)nc(N)c2n1)c1ccc(C(=O)N[C@@H](CCC(=O)O)C(=O)O)cc1 (stereo partly drawn) [EDX, edatrexate] | 4.3 ± 2 | 3/10 | 1/10 | 2.2 ± 1.1 | 6/20 | 2/20 | 6.8 ± 2 | 0/5 | 0/5 | IC50 [9]: 380 ± 50 nM; IC50 [10]: 260 ± 30 nM; IC50 [11]: 860 ± 100 nM; IC50 [12]: 990 ± 150 nM
